Laboratory results taken from patent publication US20090318530A1, “PHARMACEUTICAL COMPOSITIONS COMPRISING NK1 RECEPTOR ANTAGONISTS AND SODIUM CHANNEL BLOCKERS” (GLAXO GROUP LIMITED, priority 2007, published 2009).
Like-named read-outs stand apart in the source and are kept apart here.

Experiments:
[1] = tested on: threshold for tonic hindlimb extensor seizures; assay: Maximal electroshock seizure threshold (MEST) test, 'up and down' method; assay type: in vivo, rat; conditions: male CD rats
Procedure: This work was conducted in compliance with the Home Office Guidance on the operation of the Animals (Scientific Procedures) Act 1986 and GlaxoSmithKline ethical standards. Male CD rats (100-145 g) were supplied by Charles River, UK. Animals were group housed (6 animal per cage) with free access to food (Standard rodent chow; Harlan, UK) and water under a 12 h light/dark cycle (lights on at 0700 h). A period of at least one week between arrival at GSK and the study was allowed in all cases.
Animals were administered a test compound at the appropriate dose, route and pre-treatment time and returned to their home cage. Testing occurred in a separate room from that used for housing. […] Seizure threshold was determined using the ‘up and down’ method of Kimball et al. (1957)(Kimball A W, Burnett W T Jr, Doherty D G. (1957) Radiat Res. 7(1):1-12). […]
All doses were calculated as base. […]
Induction of seizure is measured as an all-or-nothing effect scored as either present (+) or absent (0) for each animal. […] Drug effects were calculated as the % change in CC50. Significant differences between drug-treated animals and appropriate vehicle treated groups were assessed according to the methods of Litchfield and Wilcoxon (1949). The statistical significance of differences between (5R)-5-(4-{[(2-fluorophenyl)methyl]oxy}phenyl)-L-prolinamide or in combination with ENK6 was assessed using a Student's t test.

[2] = Blood and brain drug concentrations in satellite animals; assay type: in vivo; conditions: rat; for concentration at 60 min / concentration at 30 min: CD; for concentration at 60 min: intraperitoneal; for concentration at 30 min: subcutaneous
Procedure: […] Blood and brain samples were taken for analysis of the drug concentrations in these compartments.
All doses were calculated as base. ENa8 was dosed via the subcutaneous (s.c.) route at 1 ml/kg in a 2% v/v DMSO/saline vehicle 30 minutes prior to test. Compound ENK6 was dosed with via the intraperitoneal (i.p.) route 60 minutes before the test. ENK6 was dissolved in saline.

Row | concentration at 60 min ([2]; brain, 30 mg/kg, ENK6 30 mg/kg, ENa8 veh, rat satellite animal n=1, read-out: Brain ENK6) [ng/g] | concentration at 60 min ([2]; brain, ENK6 30 mg/kg + ENa8 1 mg/kg, rat satellite animals n=2, read-out: Brain ENK6) [ng/g] | concentration at 60 min ([2]; brain, ENK6 30 mg/kg + ENa8 3 mg/kg, rat satellite animals n=2, read-out: Brain ENK6) [ng/g] | concentration at 60 min ([2]; whole blood, 30 mg/kg, ENK6 30 mg/kg, ENa8 veh, rat satellite animal n=1, read-out: Blood ENK6) [ng/mL] | concentration at 60 min ([2]; whole blood, ENK6 30 mg/kg + ENa8 1 mg/kg, rat satellite animals n=2, read-out: Blood ENK6) [ng/mL] | concentration at 60 min ([2]; whole blood, ENK6 30 mg/kg + ENa8 3 mg/kg, rat satellite animals n=2, read-out: Blood ENK6) [ng/mL] | concentration at 30 min ([2]; brain, 1 mg/kg, ENa8 1 mg/kg, ENK6 veh, rat satellite animals n=2, read-out: Brain ENa8) [ng/g] | concentration at 30 min ([2]; brain, 3 mg/kg, ENa8 3 mg/kg, ENK6 veh, rat satellite animals n=2, read-out: Brain ENa8) [ng/g] | concentration at 30 min ([2]; brain, ENa8 1 mg/kg + ENK6 30 mg/kg, rat satellite animals n=2, read-out: Brain ENa8) [ng/g] | concentration at 30 min ([2]; brain, ENa8 3 mg/kg + ENK6 30 mg/kg, rat satellite animals n=2, read-out: Brain ENa8) [ng/g] | concentration at 30 min ([2]; whole blood, 1 mg/kg, ENa8 1 mg/kg, ENK6 veh, rat satellite animals n=2, read-out: Blood ENa8) [ng/mL] | concentration at 30 min ([2]; whole blood, 3 mg/kg, ENa8 3 mg/kg, ENK6 veh, rat satellite animals n=2, read-out: Blood ENa8) [ng/mL] | concentration at 30 min ([2]; whole blood, ENa8 1 mg/kg + ENK6 30 mg/kg, rat satellite animals n=2, read-out: Blood ENa8) [ng/mL] | concentration at 30 min ([2]; whole blood, ENa8 3 mg/kg + ENK6 30 mg/kg, rat satellite animals n=2, read-out: Blood ENa8) [ng/mL] | blood or brain concentration of ENa8 in the presence of ENK6 ([2]; ENa8 1 or 3 mg/kg s.c. with ENK6 30 mg/kg i.p. versus ENa8 alone) | SMILES | seizure threshold in the MEST ([1]; ENK6 30 mg/kg i.p. alone, 60 min before test) | seizure threshold in the MEST ([1]; ENa8 3 mg/kg s.c. alone, 30 min prior to test)
1 | 1510 | 1160 | 881 | 631 | 471 | 414 |  |  |  |  |  |  |  |  |  | COc1ccc(-n2nnnc2C(F)(F)F)cc1CN[C@H]1CCCN[C@H]1c1ccccc1.Cl.Cl [ENK6, [2-Methoxy-5-(5-trifluoromethyl-tetrazol-1-yl)-benzyl]-([2S,3S]-2-phenyl-piperidin-3-yl)-amine dihydrochloride] | no effect | 
2 |  |  |  |  |  |  | 1170 | 2300 | 1340 | 2620 | 188 | 349 | 246 | 456 | No increase | Cl.NC(=O)[C@@H]1CC[C@H](c2ccc(OCc3ccccc3F)cc2)N1 [ENa8, (5R)-5-(4-{[(2-fluorophenyl)methyl}oxy]phenyl)-L-prolinamide hydrochloride] |  | small, but significant increase
